Test results: paper PMC11882969 (Nature Communications, 2025)
Where “and” joins values, the source holds several entries; their conditions need not be identical. Equal values may be shown once. Read-outs that look alike come from different tables or passages of the source.

Legend:
hCB1 = hCB1 (Homo sapiens, UniProt P21554); assay: Lance Ultra cAMP accumulation assay, CHO cells; type: cell-based; set-up: expressed in transfected cells; settings: for normalised cAMP response, concentration-response (Figure2f), replicate values: log[Compound;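 on all read-outs here: human CB1R stably expressed in CHO cells, ligands co-incubated with forskolin at room temperature, read-out is lowering of forskolin-stimulated cAMP accumulation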
CB1 (rCB1) = CB1 (rCB1) (Rattus norvegicus, UniProt P20272); assay: Radioligand competition binding, [3H]-CP-55,940, rat brain membranes; settings: for radioligand binding, competition curve point (normalized): log[drug], replicate columns
Sequence of CB1 (rCB1) (P20272 whole entry): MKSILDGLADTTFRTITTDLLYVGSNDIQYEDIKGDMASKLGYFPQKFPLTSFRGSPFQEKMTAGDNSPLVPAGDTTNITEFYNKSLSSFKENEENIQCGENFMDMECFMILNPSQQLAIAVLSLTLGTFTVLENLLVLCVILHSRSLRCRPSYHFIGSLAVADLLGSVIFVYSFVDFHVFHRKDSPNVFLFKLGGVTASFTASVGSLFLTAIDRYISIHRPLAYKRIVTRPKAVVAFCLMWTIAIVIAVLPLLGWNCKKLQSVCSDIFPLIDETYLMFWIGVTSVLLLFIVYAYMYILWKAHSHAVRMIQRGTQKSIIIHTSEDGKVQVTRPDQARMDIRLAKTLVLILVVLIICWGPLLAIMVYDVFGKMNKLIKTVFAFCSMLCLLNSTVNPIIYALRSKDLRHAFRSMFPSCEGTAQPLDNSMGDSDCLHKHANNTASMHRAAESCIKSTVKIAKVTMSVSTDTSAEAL

Sequence of hCB1 (P21554 whole entry): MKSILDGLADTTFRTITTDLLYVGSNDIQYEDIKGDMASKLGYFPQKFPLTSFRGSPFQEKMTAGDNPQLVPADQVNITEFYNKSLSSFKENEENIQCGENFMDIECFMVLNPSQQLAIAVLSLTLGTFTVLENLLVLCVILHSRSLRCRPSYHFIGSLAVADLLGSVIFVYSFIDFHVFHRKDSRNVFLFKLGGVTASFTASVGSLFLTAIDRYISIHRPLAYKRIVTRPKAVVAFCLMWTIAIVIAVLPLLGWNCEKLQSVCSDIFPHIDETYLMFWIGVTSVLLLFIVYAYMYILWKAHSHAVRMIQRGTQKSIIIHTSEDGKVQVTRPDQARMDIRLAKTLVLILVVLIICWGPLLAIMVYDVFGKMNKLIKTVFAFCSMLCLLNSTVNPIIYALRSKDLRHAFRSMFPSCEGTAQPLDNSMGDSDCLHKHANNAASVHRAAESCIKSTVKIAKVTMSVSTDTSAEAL

## Cc1cc(C(=O)NC(C)(c2ccco2)c2ccco2)nn1-c1cccc(C(F)(F)F)c1 [‘4936]
hCB1
  EC50: 4.79 nM
hCB1; CHO
  Emax: 65%
hCB1; hCB1-expressing cells, in words
  agonism, inhibition of forskolin-stimulated cAMP: agonists
hCB1; M] -5
  normalised cAMP response, concentration-response (Figure2f), replicate values: 23.9901 and 17.3183 and 31.2071
hCB1; M] -6
  normalised cAMP response, concentration-response (Figure2f), replicate values: 35.8451 and 34.6268 and 48.1963
hCB1; M] -7
  normalised cAMP response, concentration-response (Figure2f), replicate values: 34.8754 and 40.2051 and 42.4315
hCB1; M] -8
  normalised cAMP response, concentration-response (Figure2f), replicate values: 49.8775 and 50.0992 and 49.4868
hCB1; M] -9
  normalised cAMP response, concentration-response (Figure2f), replicate values: 89.3609 and 84.5102 and 106.905
hCB1; M] -10
  normalised cAMP response, concentration-response (Figure2f), replicate values: 90.3788 and 99.666 and 104.111
hCB1; M] -11
  normalised cAMP response, concentration-response (Figure2f), replicate values: 85.7953 and 85.5262 and 99.9371
hCB1; M] -12
  normalised cAMP response, concentration-response (Figure2f), replicate values: 103.02 and 108.188 and 110.316
CB1 (rCB1)
  Ki: 7 nM
CB1 (rCB1); LLE = pIC50 − clogP
  LLE (lipophilic ligand efficiency): 3.2
CB1 (rCB1); from rCB1 affinity
  LE (ligand efficiency): 0.37
CB1 (rCB1); rCB1
  pKi [95% CI]: 8.1 [7.9 – 8.4]
CB1 (rCB1); rCB1, M = -5.643
  radioligand binding, competition curve point (normalized): 23.3333 and 16.4729
CB1 (rCB1); rCB1, M = -6.357
  radioligand binding, competition curve point (normalized): 15.1515 and 4.845
CB1 (rCB1); rCB1, M = -7.07
  radioligand binding, competition curve point (normalized): 14.5455 and 12.7907
CB1 (rCB1); rCB1, M = -7.783
  radioligand binding, competition curve point (normalized): 50 and 46.3178
CB1 (rCB1); rCB1, M = -8.496
  radioligand binding, competition curve point (normalized): 103.182 and 83.9147
CB1 (rCB1); rCB1, M = -9.21
  radioligand binding, competition curve point (normalized): 89.2442
CB1 (rCB1); rCB1, M = -9.923
  radioligand binding, competition curve point (normalized): 99.0909 and 86.6279
CB1 (rCB1); rCB1, M = -10.636
  radioligand binding, competition curve point (normalized): 105.758 and 87.9845
CB1 (rCB1); rCB1 binding
  fold less potent than CP-55,940: 2.5 fold
CB1 (rCB1); read-out: Ki [95% CI], rCB1, [3H]-CP-55,940
  Ki: 7.5 nM
CB1 (rCB1); vs parent hit or analog without the change
  fold improvement in CB1R affinity: approximately 6 fold
